Values joined by “and” are separate entries in the source; they are usually repeats but may differ in a detail not shown here. Identical values can stand only once. Like-named read-outs stand apart in the source and are kept apart here.
Assays:
[1] = PK study in male Sprague-Dawley rats dosed once per day for five days, PO 1 mg/kg, 0.5% HPMC (Example 6); format: in vivo; conditions: 0.5% HPMC suspension
Description: Example 6: PK study of 4ET-03-053 in male Sprague-Dawley rats dosed once per day for five days (P0; 1 mg/kg; 0.500HPMC aqueous suspension)
Table 18 provides plasma and brain concentrations of 4ET-03-0053 at 24 hr after the last dose of five daily P0 doses.

Wistar rats = assay: Intravenous self-administration with oxycodone and saline regimen; format: in vivo; conditions: rat, in vivo
Description: Ten male and eleven female Wistar rats (Charles River, Hollister, CA) were used in this study. Rats were housed in groups of 2-3 per cage prior to surgery, and then individually housed to protect their catheters, in a temperature-controlled (22° C.) vivarium on a 12/12h light/dark cycle (lights off at 8:00 AM) with ad libitum access to food and water. The rats acclimated to the animal facility for at least 7 days before surgery. All procedures adhered to the National Institutes of Health Guide for the Care and Use of Laboratory Animals and were approved by the Institutional Animal Care and Use Committee of The Scripps Research Institute.
For surgery, rats were anesthetized with 2 to 3% isoflurane. They were implanted with a silastic catheter (0.3 mm i.d.×0.64 mm o.d.; Dow Corning Co. Midland, MI) into the right external jugular vein under aseptic conditions. The distal end of the catheter was subcutaneously threaded to the back of the rat where it exited via a metal guide cannula (22G; Plastics One Inc., Roanoke, VA) that was anchored at the back of the rat and closed with a small plastic cap and metal cover cap to keep the inside part of the catheter clean and protected (Caine S B, et al. “Effects of dopamine D-1 and D-2 antagonists on cocaine self-administration under different schedules of reinforcement in the rat” J Pharmacol Exp Ther. 270(1):209-18 (1994); Wee S, et al. “Effects of dose and session duration on cocaine self-administration in rats” J Pharmacol Exp Ther. 320(3):1134-43 (2007); Zorrilla E P, et al. “Extended access cocaine self-administration differentially activates dorsal raphe and amygdala corticotropin-releasing factor systems in rats” Addict Biol. 17(2):300-8 (2012); Valtcheva M V, et al. “Surgical extraction of human dorsal root ganglia from organ donors and preparation of primary sensory neuron cultures” Nat Protoc. 11:1877-1888 (2016)). All incisions were closed using veterinary tissue adhesive. After surgery, rats were given analgesic (Flunixin, 2.5 mg/kg s.c.).
Rats were allowed 5-7 days for recovery prior to self-administration.
The patency of catheters in the rats was tested using an ultra-short-acting barbiturate methohexital sodium (Brevital, Eli Lilly, Indianapolis, 1N, 10 mg/mL, 2 mg/rat) every 10-12 days during the study. Generally, a total loss of muscle tone within 3 s after a methohexital sodium injection indicates the patency of a catheter. Any animal that failed the test was excluded from the study.
During experimental sessions, each rat was placed in a standard operant chamber, which was placed in a light- and sound-attenuating cubicle (28×26×20 cm; Med Associates Inc., St. Albans, VT). The front door and the back wall of the chamber were made of transparent plastic, and the other walls were opaque metal. The chamber had two retractable response levers mounted on one side of the opaque walls. A stimulus light was mounted above each lever. A drug injection was delivered by a syringe pump (Razel Scientific Instruments, Georgia, VT) located on top of the cubicle. Experimental sessions were controlled and recorded by a PC computer with custom interface and software in the experimental room.
Experimental sessions were conducted once a day, 5-7 days a week during the dark (active) cycle. After being flushed with 0.9% saline, a rat's indwelling catheter was connected to a tube that exited the chamber through a metal spring and a swivel and was connected to a syringe pump. After the drug delivery system was connected to the rat, the chamber was closed, and the 2 hr session was started immediately. The start of a session was signaled by the presentation of two response levers into the chamber. […] During an injection, stimulus lights above both levers were illuminated and lasted throughout a time-out period (20 s) that followed each injection. Pressing the left lever was counted but had no other programmed consequences. […]

[2] = Sprague-Dawley rats, day 5 of daily PO 1 mg/kg, individual animals, 1 mg/kg
[3] = Sprague-Dawley rats, day 5 of daily PO 1 mg/kg, mean (n = 3)
[4] = male Sprague-Dawley rats, single (first) PO 1 mg/kg dose, individual animals, 1 mg/kg
[5] = male Sprague-Dawley rats, single (first) PO 1 mg/kg dose, mean (n = 3)
[6] = male, Sprague-Dawley, rat, in vivo, po, 1 mg/kg, Sprague-Dawley rats, day 5 of daily PO 1 mg/kg, individual animals
[7] = male, Sprague-Dawley, rat, in vivo, po, 1 mg/kg, Sprague-Dawley rats, day 5 of daily PO 1 mg/kg, mean (n = 3)
[8] = male, Sprague-Dawley, rat, in vivo, po, 1 mg/kg, male Sprague-Dawley rats, single (first) PO 1 mg/kg dose, individual animals
[9] = male, Sprague-Dawley, rat, in vivo, po, 1 mg/kg, male Sprague-Dawley rats, single (first) PO 1 mg/kg dose, mean (n = 3)

Cc1cc(Nc2cc(N)ncn2)c(=O)n2c1C(=O)NC21CCC2(CC2)CC1 [4ET-03-053, 6″-((6-Aminopyrimidin-4-yl)amino)-8″-methyl-2″H-dispiro[cyclopropane-1,1′-cyclohexane-4′,3″-imidazo[1,5-a]pyridine]-1″,5″-dione]
time to peak plasma concentration ([1]; Sprague-Dawley rats, after five daily PO doses of 1 mg/kg): ≤ 2 h | AUCinf [1, 2]: 43537 ng·h/mL and 36277 ng·h/mL | AUCinf/D [1, 2]: 49825 kg·h/kL and 43537 kg·h/kL and 36277 kg·h/kL | AUClast [1, 2]: 40882 ng·h/mL and 34335 ng·h/mL | Clast [1, 2]: 318 ng/mL and 291 ng/mL | Cmax [1, 2]: 4550 ng/mL and 4500 ng/mL | Cmax/D [1, 2]: 4150 kg/kL and 4550 kg/kL and 4500 kg/kL | F [1, 2]: 96.8% and 84.6% and 70.5% | MRTinf [1, 2]: 7.96 h | t1/2 [1, 2]: 5.90 h and 6.21 h | AUCinf/D [1, 3]: 43213 kg·h/kL | Cmax/D [1, 3]: 4400 kg/kL | F [1, 3]: 84.0% | AUCinf [1, 4]: 33302 ng·h/mL and 30451 ng·h/mL | AUCinf/D [1, 4]: 37178 kg·h/kL and 33302 kg·h/kL and 30451 kg·h/kL | AUClast [1, 4]: 31340 ng·h/mL and 28992 ng·h/mL | Clast [1, 4]: 237 ng/mL and 224 ng/mL | Cmax [1, 4]: 2750 ng/mL | Cmax/D [1, 4]: 2400 kg/kL and 2750 kg/kL and 2580 kg/kL | F [1, 4]: 72.2% and 64.7% and 59.2% | MRTinf [1, 4]: 8.31 h and 7.83 h | t1/2 [1, 4]: 5.77 h and 5.92 h | AUCinf/D [1, 5]: 33644 kg·h/kL | Cmax/D [1, 5]: 2577 kg/kL | F [1, 5]: 65.4% | time to peak plasma concentration ([1]; male Sprague-Dawley rats, single PO 1 mg/kg): ≤ 2 h | bioavailability ([1]; male, Sprague-Dawley, rat, in vivo, po, 1 mg/kg, Sprague-Dawley rats, after five daily PO doses of 1 mg/kg): 84% | concentration at 24 h ([1]; male, Sprague-Dawley, rat, in vivo, po, 1 mg/kg, Sprague-Dawley rats, after five daily PO doses of 1 mg/kg, at 24 hr, read-out: last measurable concentration): 278 ng/mL | Cmax ([1]; male, Sprague-Dawley, rat, in vivo, po, 1 mg/kg, Sprague-Dawley rats, after five daily PO doses of 1 mg/kg, read-out: peak plasma concentration (Cmax)): 4400 ng/mL | half-life ([1]; male, Sprague-Dawley, rat, in vivo, po, 1 mg/kg, Sprague-Dawley rats, after five daily PO doses of 1 mg/kg, read-out: terminal half-life (t1/2) (converted)): 6.01 h | AUC(0-inf) ([1]; male, Sprague-Dawley, rat, in vivo, po, 1 mg/kg, Sprague-Dawley rats, after five daily PO doses of 1 mg/kg, read-out: total systemic exposure (AUCinf)): 43200 ng·h/mL | AUC(0-t) [1, 6]: 47100 ng·h/mL | MRT inf [1, 6]: 7.89 h | Tmax [1, 6]: 1 h | AUC(0-inf) ([1]; male, Sprague-Dawley, rat, in vivo, po, 1 mg/kg, Sprague-Dawley rats, day 5 of daily PO 1 mg/kg, individual animals, read-out: AUCinf): 49800 ng·h/mL | concentration at 24 h ([1]; male, Sprague-Dawley, rat, in vivo, po, 1 mg/kg, Sprague-Dawley rats, day 5 of daily PO 1 mg/kg, individual animals, read-out: Clast): 226 ng/mL | Cmax ([1]; male, Sprague-Dawley, rat, in vivo, po, 1 mg/kg, Sprague-Dawley rats, day 5 of daily PO 1 mg/kg, individual animals, read-out: Cmax): 4150 ng/mL | half-life ([1]; male, Sprague-Dawley, rat, in vivo, po, 1 mg/kg, Sprague-Dawley rats, day 5 of daily PO 1 mg/kg, individual animals, read-out: t1/2 (converted)): 5.91 h | AUC(0-t) [1, 7]: 40800 ng·h/mL | MRT inf [1, 7]: 7.8 h | Tmax [1, 7]: 1.33 h | AUC(0-inf) ([1]; male, Sprague-Dawley, rat, in vivo, po, 1 mg/kg, Sprague-Dawley rats, day 5 of daily PO 1 mg/kg, mean (n = 3), read-out: AUCinf): 43200 ng·h/mL | concentration at 24 h ([1]; male, Sprague-Dawley, rat, in vivo, po, 1 mg/kg, Sprague-Dawley rats, day 5 of daily PO 1 mg/kg, mean (n = 3), read-out: Clast): 278 ng/mL | Cmax ([1]; male, Sprague-Dawley, rat, in vivo, po, 1 mg/kg, Sprague-Dawley rats, day 5 of daily PO 1 mg/kg, mean (n = 3), read-out: Cmax): 4400 ng/mL | half-life ([1]; male, Sprague-Dawley, rat, in vivo, po, 1 mg/kg, Sprague-Dawley rats, day 5 of daily PO 1 mg/kg, mean (n = 3), read-out: t1/2 (converted)): 6.01 h | AUC(0-t) [1, 8]: 35100 ng·h/mL | MRT inf [1, 8]: 8.25 h | Tmax [1, 8]: 2 h | AUC(0-inf) ([1]; male, Sprague-Dawley, rat, in vivo, po, 1 mg/kg, male Sprague-Dawley rats, single (first) PO 1 mg/kg dose, individual animals, read-out: AUCinf): 37200 ng·h/mL | concentration at 24 hr ([1]; male, Sprague-Dawley, rat, in vivo, po, 1 mg/kg, male Sprague-Dawley rats, single (first) PO 1 mg/kg dose, individual animals, read-out: Clast): 179 ng/mL | Cmax ([1]; male, Sprague-Dawley, rat, in vivo, po, 1 mg/kg, male Sprague-Dawley rats, single (first) PO 1 mg/kg dose, individual animals, read-out: Cmax): 2400 ng/mL | half-life ([1]; male, Sprague-Dawley, rat, in vivo, po, 1 mg/kg, male Sprague-Dawley rats, single (first) PO 1 mg/kg dose, individual animals, read-out: t1/2 (converted)): 5.51 h | AUC(0-t) [1, 9]: 31800 ng·h/mL | MRT inf [1, 9]: 8.13 h | Tmax [1, 9]: 2 h | AUC(0-inf) ([1]; male, Sprague-Dawley, rat, in vivo, po, 1 mg/kg, male Sprague-Dawley rats, single (first) PO 1 mg/kg dose, mean (n = 3), read-out: AUCinf): 33600 ng·h/mL | concentration at 24 hr ([1]; male, Sprague-Dawley, rat, in vivo, po, 1 mg/kg, male Sprague-Dawley rats, single (first) PO 1 mg/kg dose, mean (n = 3), read-out: Clast): 213 ng/mL | Cmax ([1]; male, Sprague-Dawley, rat, in vivo, po, 1 mg/kg, male Sprague-Dawley rats, single (first) PO 1 mg/kg dose, mean (n = 3), read-out: Cmax): 2580 ng/mL | half-life ([1]; male, Sprague-Dawley, rat, in vivo, po, 1 mg/kg, male Sprague-Dawley rats, single (first) PO 1 mg/kg dose, mean (n = 3), read-out: t1/2 (converted)): 5.73 h | bioavailability ([1]; male, Sprague-Dawley, rat, in vivo, po, 1 mg/kg, male Sprague-Dawley rats, single PO 1 mg/kg): 65.4% | concentration at 24 h ([1]; male, Sprague-Dawley, rat, in vivo, po, 1 mg/kg, male Sprague-Dawley rats, single PO 1 mg/kg, at 24 hr, read-out: last measurable concentration): 213 ng/mL | Cmax ([1]; male, Sprague-Dawley, rat, in vivo, po, 1 mg/kg, male Sprague-Dawley rats, single PO 1 mg/kg, read-out: peak plasma concentration (Cmax)): 2580 ng/mL | half-life ([1]; male, Sprague-Dawley, rat, in vivo, po, 1 mg/kg, male Sprague-Dawley rats, single PO 1 mg/kg, read-out: terminal half-life (t1/2) (converted)): 5.73 h | AUC(0-inf) ([1]; male, Sprague-Dawley, rat, in vivo, po, 1 mg/kg, male Sprague-Dawley rats, single PO 1 mg/kg, read-out: total systemic exposure (AUCinf)): 33600 ng·h/mL | Mean Difference, Šídák's multiple comparisons test (Wistar rats): 1.500 | Summary, Šídák's multiple comparisons test (Wistar rats): ns | addictive potential (Wistar rats): negligible addictive potential | numbers of infusions, multiple comparisons test: 0.05 mg/kg 4ET-03-053 and subsequent oxycodone (Wistar rats): significant differences | numbers of infusions, multiple comparisons test: 0.1 mg/kg 4ET-03-053 and the final oxycodone test (Wistar rats): significant differences | Mean Difference, Šídák's multiple comparisons test (Wistar rats; 0.05 mg/kg): −8.041 | Summary, Šídák's multiple comparisons test (Wistar rats; 0.05 mg/kg): ns | Mean Difference, Šídák's multiple comparisons test (Wistar rats; 0.15 mg/kg): 5.441 | Summary, Šídák's multiple comparisons test (Wistar rats; 0.15 mg/kg): ns

Reference: patent US20250186436A1 (4E Therapeutics, Inc., priority 2021, published 2025)
